Results from patent US20050079529A1, “Very large scale immobilized polymer synthesis” (Affymetrix, INC., priority 1989, published 2005).
Square brackets hold non-standard residues; d marks the D form. Ends that are not written are not given here.

Columns and labels:
[1] = system: anti-dynorphin B murine monoclonal antibody; test: 4×10 peptide array related to dynorphin B screened with anti-dynorphin B antibody and labeled goat anti-mouse antibody; format: binding; conditions: FIG. 30
Source text: An array of peptides synthesized using the general protection-deprotection technology outlined above. Referring to FIG. 30, the following peptides were synthesized: row 1=RXFKVVT; row 2=RQXFKVVT; row 3=RQXKVVT; and row 4=RXKVVT. In each row, “X” represents a group of four amino acids, which were simultaneously added to the immobilized peptide. The particular group of amino acids used as “X” on a given block are identified by column number as follows: column 1 [G,A,R,K in a ratio 1:1:1:1], column 2 [null]; column 3 [C,M,S,T in the ratio 1:1:1:5]; column 4 [null]; column 5 [F,Y,W,H in the ratio 1:1:1:1]; column 6 [null]; column 7 [D,E,N,Q in the ratio 1:1:1:1]; column 8 [null]; column 9 [V,L,I,P in the ratio 2:1:4:1]; and column 10 [null].
After these peptides were synthesized, they were screened with an anti-dynorphin B murine monoclonal antibody and then exposed to a fluorescently labeled goat anti-mouse antibody. […] Other strongly labeled regions, include column 7, row 1 and column 5, row 3, each of which contains some peptides having the above binding epitope. It should be noted that the varying ratios of some of the amino acids within a given group were necessary to obtain roughly equal binding efficiencies among the four amino acids.

[2] = system: anti-dynorphin B monoclonal antibody; test: Dynorphin B deletion peptide array, relative binding of anti-dynorphin B monoclonal antibody by fluorescence intensity
Experimental: The binding epitope on dynorphin B for the anti-dynorphin B antibody described above was determined by deleting various amino acids and combinations of amino acids from the overall sequence of dynorphin B. The peptides containing these various deletions were prepared on a substrate by the general protection-deprotection methods described above. Then the substrate was exposed to the anti-dynorphin B monoclonal antibody and a fluorescence image was produced as shown in FIG. 33.
From the intensity distribution contained in this plot, it was possible to determine the relative binding affinity to various of the peptides.

Herz antibody = test: Array of sixteen amino acid sequences, relative binding to Herz antibody by fluorescence; design: species or system mouse; conditions: FIG. 17
Source text: Using techniques similar to those set forth above, an array of 16 different amino acid sequences (replicated four times) was synthesized on each of two glass substrates. The sequences were synthesized by attaching the sequence NVOC-GFL across the entire surface of the slides. Using a series of masks, two layers of amino acids were then selectively applied to the substrate. Each region had dimensions of 0.25 cm×0.0625 cm. The first slide contained amino acid sequences containing only L amino acids while the second slide contained selected D amino acids. FIGS. 15A and 15B illustrate a map of the various regions on the first and second slides, respectively. The patterns shown in FIGS. 15A and 15B were duplicated four times on each slide. The slides were then exposed to the Herz antibody and fluorescein-labeled goat anti-mouse.
FIG. 16 is a fluorescence plot of the first slide, which contained only L amino acids. Light shading indicates strong binding (149,000 counts or more) while black indicates little or no binding of the Herz antibody (20,000 counts or less). The bottom right-hand portion of the slide appears “cut off” because the slide was broken during processing. […]
FIG. 17 is a fluorescence plot of the second slide. […]
Table 2 lists the various sequences tested in order of relative fluorescence, which provides information regarding relative binding affinity. […]

Row | Substance | fluorescence labeling of array region [1] | RELATIVE INTENSITY ([2]; mean ± spread over N synthesis sites) | RELATIVE INTENSITY, value in parentheses (ADJUSTED) ([2]; second value in parentheses) | binding of Herz antibody, second slide (selected D amino acids) (Herz antibody)
1 | RQFKVVT | brightest region | 93.6 ± 10.0 | (96.2 ± 7.1) | –
2 | YpGFL: SEQ ID NO:24; lower case letters represent D-amino acids (Y[dP]GFL) | – | – | – | Significant binding
